This is an account of results in patent US11465987B2, “Compounds for treatment of cancer” (ONCTERNAL THERAPEUTICS, INC., priority 2012, dated 2022).

Assay [1] concerns PC-3 human prostate cancer cell line. The assay is described as follows: cells. An excerpt:
(§1) Cells were stained with SRB solution.

Assay [2] deals with PPC-1 human prostate cancer cell line. The assay is described as follows: Cytotoxicity (SRB) assay, PPC-1. Format: cell-based.
From the text: as §1

The subject of assay [3] is LNCaP human prostate cancer cell line. The assay is described as follows: Cytotoxicity (SRB) assay, LNCaP. Format: cell-based.
From the text: as §1

Assay [4] deals with B16-F1 mouse melanoma cell line. The assay is described as follows: Cytotoxicity (SRB) assay, B16-F1. Format: cell-based.
The test system of assay [5] is melanoma and prostate cancer cell lines. The assay is described as follows: Antiproliferative activity summarised over the cell line panel (range or average). It counts as cell-based.
Assay [6] has as its system A375 human melanoma cell line. The assay is described as follows: Cytotoxicity (SRB) assay, A375. Format: cell-based.
Assay [7] deals with DU 145 human prostate cancer cell line. The assay is described as follows: Cytotoxicity (SRB) assay, DU 145. Format: cell-based.
From the text: as §1

Assay [8] concerns WM-164 human melanoma cell line. The assay is described as follows: Cytotoxicity (SRB) assay, WM-164. Format: cell-based.
Where [9] appears, read: Homo sapiens, read-out: IC50 PC-3, SRB assay, prostate cancer PC-3.
Where [10] appears, read: Homo sapiens, PPC-1, SRB assay, prostate cancer PPC-1, read-out: IC50 PPC-1.
Setting [11] is: Homo sapiens, LNCaP, SRB assay, prostate cancer LNCaP, read-out: IC50 LNCaP.
Setting [12] is: Mus musculus, B16-F1, SRB assay, mouse melanoma B16-F1, read-out: IC50 B16-F1.
The mark [13] stands for this setting: Homo sapiens, A-375, SRB assay, human melanoma A375, read-out: IC50 A375.
Where [14] appears, read: Homo sapiens, DU-145, SRB assay, prostate cancer DU 145, read-out: IC50 DU 145.
[15] abbreviates: Homo sapiens, WM164, Table 12, read-out: IC50 ± SEM, WM164 (converted).
Where [16] appears, read: Homo sapiens, read-out: IC50 ± SEM, PC-3, Table 12.
Setting [17] is: Mus musculus, B16-F1, Table 12, read-out: IC50 ± SEM, B16-F1 (converted).
Setting [18] is: Homo sapiens, A-375, Table 12, read-out: IC50 ± SEM, A375 (converted).
Where [19] appears, read: Homo sapiens, read-out: inhibitory effects, PC3, Table 13A.
[20] abbreviates: Homo sapiens, PPC-1, Table 13A, read-out: inhibitory effects, PPC1.
[21] abbreviates: Homo sapiens, LNCaP, Table 13A, read-out: inhibitory effects, LNCaP.
Setting [22] is: Homo sapiens, DU-145, Table 13A, read-out: inhibitory effects, DU145.
Setting [23] is: read-out: inhibitory effects, PC3, Table 13A.
Setting [24] is: Table 13A, read-out: inhibitory effects, PPC1.
Where [25] appears, read: Table 13A, read-out: inhibitory effects, LNCaP.
[26] abbreviates: Table 13A, read-out: inhibitory effects, DU145.
The mark [27] stands for this setting: Homo sapiens, read-out: IC50 ± SEM, PC-3, Table 6A.
[28] abbreviates: Homo sapiens, PPC-1, Table 6A, read-out: IC50 ± SEM, PPC-1 (converted).
Setting [29] is: Homo sapiens, LNCaP, Table 6A, read-out: IC50 ± SEM, LNCaP (converted).
The mark [30] stands for this setting: Homo sapiens, DU-145, Table 6A, read-out: IC50 ± SEM, DU 145.
[31] abbreviates: Homo sapiens, read-out: IC50 ± SEM, PC-3.
The mark [32] stands for this setting: Homo sapiens, PPC-1, read-out: IC50 ± SEM, PPC-1.
The mark [33] stands for this setting: Homo sapiens, LNCaP, read-out: IC50 ± SEM, LNCaP.
Where [34] appears, read: Homo sapiens, DU-145, read-out: IC50 ± SEM, DU 145.

SMILES strings stand for the structures. Counter-ions that a name gives are not always drawn. Like-named read-outs stand apart in the source and are kept apart here.

Take `COc1cc(C(=O)c2cccc(-c3ccccc3)n2)cc(OC)c1OC` [1c, (6-Phenylpyridin-2-yl)(3,4,5-trimethoxyphenyl)methanone]: the IC50 in assay [1] (setting [9]) is 32 ± 2 nM; in assay [2] (setting [10]), 25 ± 1 nM; in assay [3] (setting [11]), 27 ± 2 nM; in assay [4] (setting [12]), 39 ± 12 nM; in assay [5] (range over prostate cancer cell lines, read-out: IC50 range against prostate cancer cells) it was 12 to 35 nM; in assay [6] (setting [13]) it was 30 ± 14 nM. The IC50 in assay [7] (setting [14]) stood at 33 ± 3 nM.

For the molecule `COc1cc(C(=O)c2csc(-c3ccc(N(C)C)cc3)n2)cc(OC)c1OC` [2o, (2-(4-(Dimethylamino)phenyl)thiazol-4-yl)(3,4,5-trimethoxyphenyl)methanone], the IC50 in assay [1] (setting [9]) was determined as 73 nM; in assay [2] (setting [10]) it was 73 nM; in assay [3] (setting [11]), 65 nM; in assay [4] (setting [12]), 42 nM; in assay [6] (setting [13]) it was 38 nM; in assay [7] (setting [14]) it was 121 nM.

Regarding `COc1cc(/C=C\c2csc(-c3ccccc3)n2)cc(OC)c1OC` [3a, (Z)-2-Phenyl-4-(3,4,5-trimethoxystyryl)thiazole], the IC50 in assay [8] (Homo sapiens, WM164, read-out: IC50 WM164) was 10600 ± 5800 nM; in assay [1] (Homo sapiens, read-out: IC50 PC-3), greater than 10000 nM. Besides, in assay [5] (Tables 1-3), the “antiproliferative activity in words” value is given as “lost activity”.

Consider `COc1cc(Sc2cccc(-c3ccccc3)c2)cc(OC)c1OC` [4a, Biphenyl-3-yl(3,4,5-trimethoxyphenyl)sulfane], for which the IC50 in assay [1] (setting [9]) was greater than 10000 nM; in assay [3] (setting [11]), 2300 ± 200 nM; in assay [6] (setting [13]), 1600 ± 400 nM.

Take `COc1cc(C(=O)c2csc(Nc3ccc(C)cc3)n2)cc(OC)c1OC` [5Hb, (2-(p-tolylamino)thiazol-4-yl)(3,4,5-trimethoxyphenyl)methanone hydrochloride salt]: the IC50 in assay [1] (setting [9]) was determined as 38 ± 2 nM; in assay [2] (setting [10]) it was 36 ± 1 nM; in assay [3] (setting [11]), 35 ± 1 nM; in assay [7] (setting [14]), 35 ± 1 nM.

In the case of `COc1cc(C(=O)c2c[nH]c(-c3ccc(F)cc3)n2)cc(OC)c1OC` [12ba, (2-(4-fluorophenyl)-1H-imidazol-4-yl)(3,4,5-trimethoxyphenyl)methanone], the IC50 in assay [8] (setting [15]) is 73 ± 8 nM; in assay [1] (setting [16]), 169 ± 12 nM; in assay [4] (setting [17]), 320 ± 41 nM; in assay [6] (setting [18]), 205 ± 19 nM.

Turning to `Cc1ccc(-c2nc(C(=O)c3ccc(F)cc3)c[nH]2)cc1` [12db, (4-fluorophenyl)(2-(p-tolyl)-1H-imidazol-4-yl)methanone], the IC50 in assay [8] (setting [15]) is 156 nM; in assay [2] (Homo sapiens, PPC-1, Table 12, read-out: IC50 ± SEM, PPC-1 (converted)) it was 54 nM; in assay [4] (setting [17]) it was 222 nM; in assay [5] (read-out: IC50 (range over tested cell lines)), 7.9 to 110 nM.

In the case of `COc1ccc(-c2nc(C(=O)c3ccc(F)cc3)c[nH]2)cc1OC` [12hb, (2-(3,4-dimethoxyphenyl)-1H-imidazol-4-yl)(4-fluorophenyl)methanone], the IC50 in assay [8] (setting [15]) is 1400 nM; in assay [1] (setting [16]), 10000 nM; in assay [4] (setting [17]), 4210 nM; in assay [5] (Tables 11-13, read-out: IC50 (average of all seven cell lines)) it was 1000 to 50000 nM.

As for `COc1cc(C(=O)c2c[nH]c(-c3ccc(O)cc3)n2)cc(OC)c1OC` [12ka, (2-(4-hydroxyphenyl)-1H-imidazol-4-yl)(3,4,5-trimethoxyphenyl)methanone], the results for the IC50 in assay [8] (setting [15]), in assay [4] (setting [17]) and in assay [6] (setting [18]) were 1800 nM, 2400 nM and 1600 nM, respectively.

As for `O=C(c1cc(O)c(O)c(O)c1)c1c[nH]c(-c2ccc(O)c(O)c2)n1` [13ha], the IC50 is greater than 10000 nM in assay [8] (Table 12, read-out: IC50 ± SEM, WM164 (converted)); greater than 10000 nM in assay [4] (Table 12, read-out: IC50 ± SEM, B16-F1 (converted)); greater than 10000 nM in assay [6] (Table 12, read-out: IC50 ± SEM, A375 (converted)).

With `CCCn1cc(-c2ccccc2)nc1C(=O)c1cc(OC)c(OC)c(OC)c1` [70ab], the IC50 in assay [1] (Homo sapiens, read-out: inhibitory effects, PC3) turned out to be 25.6 nM; in assay [2] (Homo sapiens, PPC-1, read-out: inhibitory effects, PPC1), 9.8 nM; in assay [3] (Homo sapiens, LNCaP, read-out: inhibitory effects, LNCaP), 49.4 nM; in assay [7] (Homo sapiens, DU-145, read-out: inhibitory effects, DU145), 71.6 nM.

On to `COc1cc(C(=O)c2nc(-c3ccccc3)cn2C(C)C)cc(OC)c1OC` [70ac], for which the IC50 worked out at 52.5 nM in assay [1] (setting [19]), 15 nM in assay [2] (setting [20]), 62.2 nM in assay [3] (setting [21]) and 114 nM in assay [7] (setting [22]).

As for `COc1cc(C(=O)c2nc(-c3ccccc3)cn2-c2ccccn2)cc(OC)c1OC` [70ad], the IC50 amounted to 7.8 nM in assay [2] (setting [20]), 19.5 nM in assay [3] (setting [21]) and 36.3 nM in assay [7] (setting [22]).

Turning to `COc1cc(C(=O)c2nc(-c3ccc(F)cc3)c[nH]2)cc(OC)c1OC` [70b, (4-(4-Fluorophenyl)-1H-imidazol-2-yl)(3,4,5-trimethoxyphenyl)methanone and (5-(4-fluorophenyl)-H-imidazol-2-yl)(3,4,5-trimethoxyphenyl)methanone], the IC50 in assay [1] (setting [23]) amounted to 196 nM; in assay [2] (setting [24]) it was 13 nM; in assay [3] (setting [25]) it was 114 nM; in assay [7] (setting [26]) it was 353 nM.

In the case of `COc1cc(C(=O)c2nc(-c3ccc(O)cc3)c[nH]2)cc(OC)c1OC` [70i, (4-(4-Hydroxyphenyl)-1H-imidazol-2-yl)(3,4,5-trimethoxyphenyl)methanone and (5-(4-hydroxyphenyl)-1H-imidazol-2-yl)(3,4,5-trimethoxyphenyl)methanone)], the IC50 was 155 nM in assay [1] (setting [23]), 122 nM in assay [2] (setting [24]), 219 nM in assay [3] (setting [25]) and 518 nM in assay [7] (setting [26]).

As for `COc1cc(C(=O)c2nc(-c3ccccc3)cn2Cc2ccccc2)cc(OC)c1OC` [70o, (1-Benzyl-4-phenyl-1H-imidazol-2-yl)(3,4,5-trimethoxyphenyl)methanone], the IC50 came to 72 nM in assay [1] (setting [19]), 77 nM in assay [2] (setting [20]), 67 nM in assay [3] (setting [21]) and 160 nM in assay [7] (setting [22]).

As for `COc1cc(C(=O)c2nc(-c3ccccc3)cn2C2CCCC2)cc(OC)c1OC` [70p, (1-cyclopentyl-4-phenyl-1H-imidazol-2-yl)(3,4,5-trimethoxyphenyl)methanone], the IC50 in assay [1] (setting [19]) was 56 nM; in assay [2] (setting [20]), 63 nM; in assay [3] (setting [21]), 51 nM; in assay [7] (setting [22]), 167 nM.

`O=C(c1csc(-c2ccccc2)n1)c1c(F)c(F)c(F)c(F)c1F` [compound 17]: the IC50 is 1900 nM in assay [1] (setting [27]), 1300 nM in assay [2] (setting [28]), 2100 nM in assay [3] (setting [29]) and 2600 nM in assay [7] (setting [30]).

With `COc1ccc(C(=O)n2ccnc2-c2ccc(F)cc2)cc1` [compound 24], the IC50 in assay [8] (Table 6A, read-out: IC50 ± SEM, WM164 (converted)) was greater than 10000 nM; in assay [3] (Table 6A, read-out: IC50 ± SEM, LNCaP (converted)) it was greater than 10000 nM.

Regarding `COc1cc(C(=O)c2csc(-c3cccs3)n2)cc(OC)c1OC` [compound 25], the IC50 is 44 nM in assay [1] (setting [31]), 13 nM in assay [2] (setting [32]), 48 nM in assay [3] (setting [33]) and 24 nM in assay [7] (setting [34]).

As to `COc1cc(C(=O)c2csc(-c3ccc(N)cc3)n2)cc(OC)c1OC` [compound 26], the IC50 in assay [1] (setting [31]) stood at 16 nM; in assay [2] (setting [32]), 15 nM; in assay [3] (setting [33]), 23 nM; in assay [7] (setting [34]), 16 nM.

For `Cc1ccc(-c2nc(C(=O)c3ccc(F)cc3)cn2C(=O)c2ccc(F)cc2)cc1` [compound 29], the IC50 in assay [1] (setting [27]) was greater than 10000 nM; in assay [2] (setting [28]), greater than 10000 nM; in assay [3] (setting [29]) it was 1790 nM; in assay [7] (setting [30]), greater than 10000 nM.

As for `COc1cc(C(=O)c2cccc(-c3cc(OC)c(OC)c(OC)c3)c2)cc(OC)c1OC` [compound 35], the IC50 came out at 40100 nM in assay [1] (setting [31]), 15000 nM in assay [2] (setting [32]), 1500 nM in assay [3] (setting [33]) and 21900 nM in assay [7] (setting [34]).

Regarding `COc1cc(-c2cccc(CO)c2)cc(OC)c1OC` [compound 39], the IC50 is 32500 nM in assay [1] (setting [27]), 21400 nM in assay [2] (setting [28]), 4300 nM in assay [3] (setting [29]) and 16800 nM in assay [7] (setting [30]).

For `COc1cc(C(=O)C2N(C)C=C(c3ccccc3)N2C)cc(OC)c1OC` (stereo not shown) [compound 105, (1,3-Dimethyl-4-phenyl-2,3-dihydro-1H-imidazol-2-yl)(3,4,5-trimethoxyphenyl)methanone], the IC50 in assay [1] (setting [9]) is 3490 nM; in assay [2] (setting [10]), 5290 nM; in assay [3] (setting [11]) it was 4240 nM.
